Publication PMC5145181, “Structural Mapping and Functional Characterization of Zebrafish Class B G-Protein Coupled Receptor (GPCR) with Dual Ligand Selectivity towards GLP-1 and Glucagon” (PLoS ONE, 2016)
Where two headings read alike, the source gives them in different places. Each block holds one substance with its values, some of them ahead of it.

Experiments:
[1] = system: GLP-1R; details: cited from earlier work
Source text: Receptors for GLP-1 (GLP-1R) and glucagon (GCGR) belong to the class B GPCRs that mediate the physiological effects of the peptides within the glucagon-secretin peptide family. Their structures are characterized by large amino terminal extracellular domains which are about 140 amino acids long and an intracellular core consisting of a cytoplasmic domain and seven transmembrane helices (7TMs) connected through three extracellular and three intracellular loops.

[2] = system: fish hepatocytes; details: GLP-1 from both human and fish; cited from earlier work
Source text: Our approach to understanding the selectivity of ligand recognition by the receptors for the gluco-regulatory peptides, GLP-1 and glucagon, has been to functionally characterize the ligand selectivity of GCGRs and GLP-1Rs from non-mammalian vertebrates and to compare them to the ligand selectivity of their mammalian counterparts. […] In the abs ...

[3] = system: zfGPCR (dual zfGLP-1R/GCGR); assay: Competitive binding, displacement of 125I-hGLP-1(7–36)amide from recombinant zfGPCR expressed in COS-7 cells; set-up: species or system zebrafish (Danio rerio); details: 125I-hGLP-1(7–36)amide tracer, intact COS-7 cells, 16–18 h at 4°C, triplicate wells; NSB with 1 μM peptide; n = 3 hGLP-1, n = 2 zf glucagon, exendin-4, exendin(9–39), n = 1 zfGLP-1. 95% CI: zfGLP-1 1.2–3.6; hGLP-1 0.98–13; zf glucagon 1.4–4.0; exendin-4 0.24–0.92; exendin(9–39) 2.4–14
Experimental: (§1) Competitive binding experiments were performed with the recombinant zfGPCR expressed in COS-7 cells, as described previously. Transient transfections of pcDNA3 vector containing recombinant zfGPCR into COS-7 cells were performed as described below for the stimulation of intracellular cAMP. Cells were grown in 100-mm plates to confluence and 24 hr after transfection they were trypsinized and transferred to 24 well plates (Biocore, Becton Dickinson). 24–48 hr later each peptide (pM to μM) was added in triplicate wells followed by the addition of an aliquot (100,000 cpm/well) of either ^125I-hGLP-1(7–36)amide or ^125I-exendin(9–39) (each radioactive peptide tracer at […] receptor grade, NEN Life Science Products, Boston, MA). Peptides, radioiodinated ^125I-tracer and cells were incubated for 16–18 h at 4°C. After incubation cells were washed twice with ice-cold PBS, lysed with 1N NaOH and radioactivity measured in a γ-counter. A single dose-displacement curve for each peptide was obtained in a single 24-well plate.
Dose-response curves for zfGLP-1, zfGLP-2 and zebrafish PACAP-38 were obtained from one transfection. […] Lower rounds of transfections were performed in experiments that replicated our published results from the competitive binding experiments with the displacement of ^125I-hGLP-1(7–36)amide binding to zfGPCR [41] and thus represented positive controls for these studies.
(§2) IC50 values represent an average of n experiments as described above and were calculated by the Prism 4 software. Displacement curves from the competitive binding experiments were plotted by Origin 9 software (OriginLab). Error bars are shown for data points in the displacement curves obtained in two or more rounds of transfections.
(§3) Results from the functional experiments with recombinant zfGPCR transiently expressed in COS-7 cells were analyzed by the Prism 4 software using a four-parameter logistic sigmoidal curve fit model. Data points represent mean +/- SEM.
They are shown together with the 95% confidence intervals (CIs). […]

[4] = system: zfGPCR (dual zfGLP-1R/GCGR); assay: Competitive binding, displacement of 125I-exendin(9–39) from recombinant zfGPCR expressed in COS-7 cells; set-up: species or system zebrafish (Danio rerio); details: 125I-exendin(9–39) tracer, intact COS-7 cells, 16–18 h at 4°C, triplicate wells, NSB with 1 μM peptide, n = 4 zfGLP-1, n = 3 hGLP-1, zf glucagon, exendin-4, n = 5 exendin(9–39). 95% CI: zfGLP-1 225–371, hGLP-1 121–262, zf glucagon 78.5–144, h glucagon 33.6–134, exendin-4 0.84–1.17, exendin(9–39) 3.42–5.17
Experimental: as §1
Non-specific binding was determined in the presence of 1μM of each peptide.
as §2, §3
They are shown together with the 95% confidence intervals (CIs). The F-test was used to compare the IC50 value for zfGLP-1 with the IC50 values for the other tested peptides obtained in the competitive binding experiments shown when ^125I-hGLP-1(7–36)amide or ^125I-exendin (9–39) were used as tracers. Following conditions were used for the curve fitting: (i) in the normalization step y = 0%was set to be 0, y = 100% was set to be 100; (ii) constrained curve-fit parameters were set to be equal to 0.00 on the bottom, 100 on top; (iii) IC50 was not constrained; (iv) the selected option in the non-linear regression curve fit was intended on finding out whether the best-fit of a selected parameter (IC50) differs between two sets.

[5] = system: zfGPCR (dual zfGLP-1R/GCGR); assay: Intracellular cAMP in COS-7 cells expressing recombinant zfGPCR; assay type: cell-based, zebrafish (Danio rerio); details: for EC50: 20 min at 37°C, pH 7.4, 1 mM 1-methyl-3-isobutylxanthine, enzyme immunoassay, n = 9 zfGLP-1, n = 5 hGLP-1, zf glucagon, h glucagon, n = 3 exendin-4, n = 6 zfGLP-2. 95% CI: zfGLP-1 0.24–0.80, hGLP-1 0.65–1.63, zf glucagon 0.20–2.9, h glucagon 0.18–1.63, exendin-4 0.07–0.46, zfGLP-2 16.8–72.6
Experimental: The ability of different peptides to stimulate the increase in intracellular cAMP levels following their binding to the recombinant zfGPCR transiently expressed in COS-7 cells was measured using methods that we developed for non-mammalian G-protein coupled receptors. In brief, COS-7 cells were grown to confluence in 100-mm plates at 37°C and transfected with the pcDNA3 vector containing the recombinant zfGPCR using the TransFast transfection reagent (Promega, Madison, WI) at a […] of plasmid DNA (25 ug) to transfection reagent (75 μL). After 24 h cells were trypsynized and transferred to 24-well plates (Biocore, Becton-Dickinson, Franklin Lakes, NJ). Peptides (pM-μM) were added 24–48 h later. Cells were equilibrated prior to the addition of peptides with the assay buffer (DMEM, 0.5% BSA, 20mM HEPES, 1mM 1-methyl-3-isobutylxanthine, 0.1mM phenylmethylsulfonyl fluoride, pH 7.4) for 20 min at 37°C. Each peptide concentration was added in triplicate wells for 20 min at 37°C. cAMP dose-response curves for each tested peptide were obtained in a single 24-well plate. In all experiments, forskolin (100 nM) (Sigma-Aldrich, St.Louis, MO) was added as a positive control, also in triplicate wells, in the same 24-well plate as the tested peptide. After incubation, the media was removed and cells were lysed by the addition of cold ethanol (1 mL per well). Cell debris was pelleted by centrifugation (10,000 g) for 10-min, and supernatants were dried using a vacuum concentrator. Samples were resuspended in an assay buffer provided by the manufacturer and cAMP levels were quantified by the enzyme immunoassay kit (Cayman Chemicals, Ann Arbor, MI) according to the manufacturer’s instructions. The basal concentration of cAMP (in the absence of peptides) was taken as 1.00, and was in the range of 9–16 pmol/well. Results are presented as a fold-increase over basal.
Results were plotted by the Origin 9 software (OriginLab), and EC50 values were calculated by Prism 4 software as described below.
as §3
They are shown together with the 95% confidence intervals (CIs).
Comparison of EC50 values calculated from the zfGLP-1 cAMP dose-response curve with the EC50 calculated from the cAMP dose-response curves for each of the tested peptides were performed by the F-test from the Prism 4 software which compares the fitted mid-point (EC50) from the data sets of the two dose-response curves under comparison. Conditions of analysis were as follows: (i) in the normalization step y = 0% was set to be 1 (the basal cAMP concentration taken as 1); y = 100% was set to be the largest value in each data set; (ii) constrained curve-fit parameters were set to be equal to 0.00 on the bottom, 100 on top; (iii) EC50 was not constrained; (iv) the selected option in the non-linear regression curve fit was intended on finding out whether the best-fit of a selected parameter (EC50) differs between two sets.

[6] = system: hGLP-1R mutant Asn318 to alanine; set-up: method as in PMID 23479653; details: Asn318 mutated to alanine, cell surface expression unchanged; cited from earlier work
[7] = target: recombinant glucagon receptor from the goldfish C. auratus (gfGCGR); details: 95% CI: zebrafish glucagon 4.3–18 nM; goldfish glucagon 0.31–1 nM; cited from earlier work
Source text: To be consistent with our initial characterization of this receptor which we referred to as zfGLP-1R [41] and the characterization of the gfGCGR [18] we used only the sequences of zfGLP-1 and zf glucagon used in those studies (shown in Fig 1) and not the second zfGLP-1 and second zebrafish glucagon found in the zebrafish genome.

[8] = system: goldfish GCGR; details: 95% CI: goldfish glucagon 1.3–7 nM; human glucagon 4.7–20 nM; cited from earlier work
Source text: In those studies the EC50 for goldfish glu ...

[9] = system: zfGPCR (dual zfGLP-1R/GCGR); details: displacement of 125I-hGLP-1(7–36)amide; read-out: IC50 in competitive binding (earlier characterization of the zfGPCR); cited from earlier work
Experimental: Furthermore, exendin-4, an agonist of hGLP-1R, displaced in competitive binding experiments the binding of ^125I-hGLP-1(7–36) amide to the zebrafish receptor with an IC50 of 0.9 nM, which is within a similar concentration range as the one determined in competitive binding experiments with recombinant hGLP-1R [41] and rGLP-1R [23]. However, subsequent phylo ...

[10] = system: hGLP-1R mutant Ser155 to alanine; details: Ser152 in hGCGR = Ser155 in hGLP-1R, mutated to alanine; cited from earlier work
Source text: Among those are TM1-TM7 interaction between Ser152^1.50 and Ser 390^7.47 in which Ser152^1.50 in TM1 in hGCGR forms a hydrogen bond with the backbone of Ser390^7.47 in TM7.

[11] = target: recombinant glucagon receptor from the frog R. tigrina rugulosa; set-up: method as in PMID 10471837; details: cited from earlier work
[12] = system: recombinant hGCGR; set-up: method as in PMID 7507321; details: cited from earlier work
[13] = target: glucagon receptor in rat hepatocytes; details: cited from earlier work
Experimental: (§4) Moreover, EC50’s for human and zebrafish glucagon obtained in our study were within similar concentration range as the EC50 ‘s determined in experiments with recombinant glucagon receptors from other vertebrate species. Thus, EC50‘s for human glucagon obtained from the cAMP assays performed with the recombinant glucagon receptor from the frog and the recombinant rat glucagon receptor were 0.8 nM [19] and 0.7nM [13], respectively, and are similar to the EC50 value of 1nM determined for the glucagon receptor in rat hepatocytes.

[14] = target: recombinant glucagon receptor from the frog; details: cited from earlier work
Experimental: as §4

[15] = target: recombinant rat glucagon receptor; details: cited from earlier work
Experimental: as §4

[16] = system: hGCGR mutant Cys240 to Tyr240; details: cited from earlier work
Source text: In the 7TM crystal structure of hGCGR [30], the side chain of Tyr239^3.44 in TM3 interacts with the backbone atoms of Gly359^6.50 (3.5Å) and Leu358^6.49 (2.8Å) in TM6. Tyr239^3.44 is conserved only in hGLP-1R and is substituted with Asn23 ...

[17] = system: hGCGR mutant Glu362 to alanine; details: reduced surface expression; cited from earlier work
Source text: Our inspection of the 7TM crystal structure of hGCGR [30] also identified a hydrophilic cluster formed by a salt bridge between Lys187^2.60 in TM2 and Glu362^6.53 in TM6, and hydrophilic portions of residues Tyr149^1.47 in TM1, Gln232^2.38, Asp238^2.43, […] in TM2; His361^6.52 in TM6, and Asp385^7.42, Ser389^7.46 Gln392^7.49 in TM7. This TM7-TM6-TM2-TM1 cluster offers a hydrophilic environment embedded deep inside the hydrophobic transmembrane.

Substance: GLP-1: refers to both GLP-1(7–37) and GLP-1(7–36)amide
stimulation of intracellular cAMP, GLP-1 vs exendin-4 [1]: to a similar degree | gluconeogenesis [2]: stimulated gluconeogenesis

Substance: exendin(9–39)
IC50 [3]: 5.8 nM | IC50 [4]: 4.21 nM | behaviour at the zfGPCR ([5]; cAMP assay): behaved as an antagonist | stimulatory effect on cAMP levels ([5]; even at 1μM, n = 4): did not show any stimulatory effects | receptor affinity [6]: reduced the receptor’s affinity

Substance: goldfish glucagon: glucagon of goldfish, literature comparison (HSEGTFSNDYSKYLETRRAQDFVEWLMNS; Glucagon; UniProt P79695 50-78, looked up)
IC50 [7]: 0.56 nM | EC50 [8]: 3 nM

EC50 [5]: 1 nM
Substance: hGLP-1: Synthetic hGLP-1(7–36)amide (referred throughout as hGLP-1), purchased from Bachem
IC50 [3]: 3.6 nM | IC50 [4]: 178 nM | IC50 [9]: 0.9 nM | receptor affinity [10]: small reduction of receptor affinity | receptor affinity [6]: reduced the receptor’s affinity

EC50 [5]: 0.54 nM
Substance: human glucagon: synthetic human glucagon purchased from Bachem
IC50 [4]: 67 nM | IC50 [11]: 12 nM | IC50 [12]: 5 nM | EC50 [8]: 9.7 nM | EC50 [13]: 1 nM | EC50 [14]: 0.8 nM | EC50 [15]: 0.7 nM | effect of mutation on binding to glucagon [16]: did not have an effect | effect of mutation on binding of glucagon [17]: decrease in the binding
